Data on six cell lines can be found in the supplement of paper PMC10307832.

Holding throughout (assay): relative viability (nuclei count vs DMSO), 5 days (fraction); higher = more cells survive
Compound in assay [1]: C1=CC2=C(C=C(C(=C2N=C1)O)N=NC3=CC4=C(C=C3)C=C(C=C4)S(=O)(=O)O)S(=O)(=O)O
An outline of the steps: (§1)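 Only plates meeting two conditions passed: control CV below 25% and at least one doubling. Lung cancer cell lines, kept overnight at 37 °C in 1536-well plates, were pinned with five library-drug doses (not always all listed) √10 apart on vehicle-anchored plates and grown 5 days without medium change. A one-step fix, permeabilisation and Hoechst stain preceded 4× imaging and MetaXpress nuclear counting. Viability equals treated-well nuclei divided by vehicle-well nuclei, as the median over plates.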

Compound in another assay: O=C(NC1CCNCC1)c1n[nH]cc1NC(=O)c1c(Cl)cccc1Cl [AT-7519]
An outline of the steps: as §1

Compound in assay [2]: C1=CC2=C(C=C(C(=C2N=C1)O)N=NC3=CC4=C(C=C3)C=C(C=C4)S(=O)(=O)O)S(=O)(=O)O + CC(=O)Nc1cccc(-n2c(=O)n(C3CC3)c(=O)c3c(Nc4ccc(I)cc4F)n(C)c(=O)c(C)c32)c1 [Trametinib] (partner 0.02 µM)
An outline of the steps: (§2)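 Dosing by pin tool came one day after lung cancer cell lines were seeded in 1536-well plates, using either one drug or a fixed anchor-drug dose plus five library-drug doses (not always all listed) in √10 steps. After 5 days, nuclei were counted on 4× images. Relative viability is treated-well nuclei count divided by vehicle-well nuclei count, and values are medians of duplicate plates.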

Compound in the assay “AT-7519 + Navitoclax”: O=C(NC1CCNCC1)c1n[nH]cc1NC(=O)c1c(Cl)cccc1Cl [AT-7519] + CC1(C)CCC(c2ccc(Cl)cc2)=C(CN2CCN(c3ccc(C(=O)NS(=O)(=O)c4ccc(N[C@H](CCN5CCOCC5)CSc5ccccc5)c(S(=O)(=O)C(F)(F)F)c4)cc3)CC2)C1 [Navitoclax] (partner 0.5 µM)
An outline of the steps:
as §2

Take NCI-H2405: the relative viability worked out at 0.972 in assay [1] (0.08 µM); 0.919 in assay [1] (0.253 µM); 0.984 in assay [1] (0.8 µM); 1.02 in assay [1] (2.53 µM); 0.877 in assay [1] (8 µM); 0.987 with AT-7519 (0.01 µM). In addition, the relative viability is 0.973 with AT-7519 (0.03162 µM); 1.01 with AT-7519 (0.3162 µM); 0.812 with AT-7519 (1 µM); 0.635 in assay [2] (first compound 0.08 µM); 0.597 in assay [2] (first compound 0.253 µM); 0.599 in assay [2] (first compound 0.8 µM). Moreover, the relative viability in assay [2] (first compound 2.53 µM) came out at 0.686; in assay [2] (first compound 8 µM) it was 0.687; in the assay with AT-7519 + Navitoclax (first compound 0.01 µM), 1.02; with AT-7519 + Navitoclax (first compound 0.03162 µM), 0.829; with AT-7519 + Navitoclax (first compound 0.3162 µM), 0.853; with AT-7519 + Navitoclax (first compound 1 µM) it was 0.528.
In the case of NCI-H322M, the relative viability in assay [1] (0.08 µM) is 1.07; in assay [1] (0.253 µM) it was 0.93; in assay [1] (0.8 µM), 0.901; in assay [1] (2.53 µM), 0.877; in assay [1] (8 µM) it was 0.951; with AT-7519 (0.01 µM) it was 0.913. Moreover, the relative viability in the assay with AT-7519 (0.03162 µM) was determined as 0.947; with AT-7519 (0.3162 µM), 0.773; with AT-7519 (1 µM) it was 0.798; in assay [2] (first compound 0.08 µM), 0.535; in assay [2] (first compound 0.253 µM), 0.544; in assay [2] (first compound 0.8 µM), 0.566. For the same cell line, the relative viability in assay [2] (first compound 2.53 µM) was 0.504; in assay [2] (first compound 8 µM), 0.528; in the assay with AT-7519 + Navitoclax (first compound 0.01 µM), 1.07; with AT-7519 + Navitoclax (first compound 0.03162 µM), 1.16; with AT-7519 + Navitoclax (first compound 0.3162 µM) it was 1.09; in the assay with AT-7519 + Navitoclax (first compound 1 µM) it was 1.07.
With NCI-H2170, the relative viability in assay [1] (0.08 µM) worked out at 1.07; in assay [1] (0.253 µM) it was 0.988; in assay [1] (0.8 µM) it was 0.97; in assay [1] (2.53 µM) it was 1.02; in assay [1] (8 µM), 0.932; with AT-7519 (0.01 µM), 0.967. In addition, the relative viability with AT-7519 (0.03162 µM) came to 0.964; in the assay with AT-7519 (0.3162 µM), 1.02; with AT-7519 (1 µM) it was 0.991; in assay [2] (first compound 0.08 µM) it was 1.06; in assay [2] (first compound 0.253 µM), 0.856; in assay [2] (first compound 0.8 µM), 0.83. Moreover, the relative viability in assay [2] (first compound 2.53 µM) worked out at 0.984; in assay [2] (first compound 8 µM), 0.927; in the assay with AT-7519 + Navitoclax (first compound 0.01 µM), 0.566; in the assay with AT-7519 + Navitoclax (first compound 0.03162 µM) it was 0.497; with AT-7519 + Navitoclax (first compound 0.3162 µM), 0.61; with AT-7519 + Navitoclax (first compound 1 µM), 0.45.
Turning to NCI-H1395, the relative viability in assay [1] (0.08 µM) was 0.9; in assay [1] (0.253 µM) it was 0.939; in assay [1] (0.8 µM), 0.843; in assay [1] (2.53 µM), 0.976; in assay [1] (8 µM), 0.899; in the assay with AT-7519 (0.01 µM), 0.934. Further, the relative viability stood at 0.998 with AT-7519 (0.03162 µM); 0.816 with AT-7519 (0.3162 µM); 0.665 with AT-7519 (1 µM); 1.07 in assay [2] (first compound 0.08 µM); 1.02 in assay [2] (first compound 0.253 µM); 1.02 in assay [2] (first compound 0.8 µM). The relative viability in assay [2] (first compound 2.53 µM) worked out at 0.911; in assay [2] (first compound 8 µM), 1.02; with AT-7519 + Navitoclax (first compound 0.01 µM), 1.62; in the assay with AT-7519 + Navitoclax (first compound 0.03162 µM) it was 1.17; with AT-7519 + Navitoclax (first compound 0.3162 µM) it was 1.03; with AT-7519 + Navitoclax (first compound 1 µM), 0.831.
For the cell line NCI-H838, the relative viability in assay [1] (0.08 µM) amounted to 1; in assay [1] (0.253 µM) it was 0.966; in assay [1] (0.8 µM), 0.924; in assay [1] (2.53 µM) it was 0.992; in assay [1] (8 µM) it was 0.997; in the assay with AT-7519 (0.01 µM), 0.925. Moreover, the relative viability is 0.876 in the assay with AT-7519 (0.03162 µM); 0.891 with AT-7519 (0.3162 µM); 0.615 in the assay with AT-7519 (1 µM); 0.566 in assay [2] (first compound 0.08 µM); 0.543 in assay [2] (first compound 0.253 µM); 0.453 in assay [2] (first compound 0.8 µM). The relative viability was found to be 0.508 in assay [2] (first compound 2.53 µM); 0.653 in assay [2] (first compound 8 µM); 1.22 with AT-7519 + Navitoclax (first compound 0.01 µM); 1.06 with AT-7519 + Navitoclax (first compound 0.03162 µM); 1.09 with AT-7519 + Navitoclax (first compound 0.3162 µM); 0.147 in the assay with AT-7519 + Navitoclax (first compound 1 µM).
Regarding CAL-12T, the relative viability turned out to be 1.08 in assay [1] (0.08 µM); 0.986 in assay [1] (0.253 µM); 0.928 in assay [1] (0.8 µM); 1.09 in assay [1] (2.53 µM); 0.932 in assay [1] (8 µM); 0.98 with AT-7519 (0.01 µM). The relative viability with AT-7519 (0.03162 µM) turned out to be 1.06; in the assay with AT-7519 (0.3162 µM) it was 0.552; with AT-7519 (1 µM), 0.256; in assay [2] (first compound 0.08 µM), 0.369; in assay [2] (first compound 0.253 µM), 0.332; in assay [2] (first compound 0.8 µM), 0.318. Further, the relative viability came to 0.332 in assay [2] (first compound 2.53 µM); 0.28 in assay [2] (first compound 8 µM); 1.21 with AT-7519 + Navitoclax (first compound 0.01 µM); 1.05 in the assay with AT-7519 + Navitoclax (first compound 0.03162 µM); 0.855 in the assay with AT-7519 + Navitoclax (first compound 0.3162 µM); 0.128 with AT-7519 + Navitoclax (first compound 1 µM).
